Results reported in PubChem BioAssay (NCI).
Values joined by “and” are separate entries in the source; they are usually repeats but may differ in a detail not shown here. Equal values may be shown once.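 How tested: cells in 96-well plates exposed to compound for 48 hours at five concentrations. The concentration for 50% growth inhibition is given as GI50. TGI: concentration producing complete growth inhibition.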

Columns and labels:
Experiment in all cases: NCI-60 cell line screen, 48 h
[1] = tested on: MOLT-4 leukemia
[2] = tested on: DU-145 prostate
[3] = tested on: MALME-3M melanoma
[4] = tested on: IGROV1 ovarian
[5] = tested on: NCI/ADR-RES ovarian
[6] = tested on: HCT-116 colon
[7] = tested on: SN12C renal
[8] = tested on: MDA-N
[9] = tested on: UACC-257 melanoma
[10] = tested on: OVCAR-5 ovarian
[11] = tested on: LOX IMVI melanoma
[12] = tested on: BT-549 breast
[13] = tested on: NCI-H226 lung

SMILES	TGI [1] [µM]	TGI [2] [µM]	TGI [3]	TGI [4]	TGI [5] [µM]	TGI [6] [µM]	TGI [7]	TGI [8] [µM]	TGI [9]	TGI [10]	TGI [11]	TGI [12] [µM]	TGI [13] [µM]	GI50 [7]	GI50 [9]
O=C1CCc2cc3c(cc21)CC1(Cc2cc4c(cc2C1)CCCC4)C3	> 100	> 100	> 100 µM	> 100 µM	> 100	> 100	> 100 µM	39.4	> 100 µM	> 100 µM	> 100 µM	> 100	–	–	–
Clc1ccc(-c2nnc(C34CC5CC(CC(C5)C3)C4)o2)cc1	> 100	> 100	> 100 µM	> 100 µM	> 100	> 100	> 100 µM	> 100	> 100 µM	> 100 µM	> 100 µM	–	> 100	–	–
FC(F)(F)C1(C(F)(F)F)O[SiH]2(OC(C(F)(F)F)(C(F)(F)F)c3ccccc32)c2ccccc21	30.5	–	42 µM	–	–	–	63.1 µM	–	54.6 µM	28.4 µM	–	–	20.3	–	–
O=[N+]([O-])/C=C/COCc1cc2c(cc1Br)OCO2	> 100	35.5	–	> 100 µM	41.6	34.1	35.7 µM	32.8	33.3 µM	34.3 µM	> 100 µM	–	–	–	–
C/C(=N\NC(=S)NNC(=S)N(C)c1ccccc1)c1ccccn1	–	> 100	20.3 µM	–	55.4	> 100	12.8 µM	> 100	> 100 µM	> 100 µM	–	> 100	6.85	–	–
CCOC(=O)/C=C/c1c[nH]c(C(=O)OCC)c1	> 100	–	> 100 µM	> 100 µM	> 100	> 100	> 100 µM	–	> 100 µM	> 100 µM	> 100 µM	–	> 100	–	–
COc1cc(C2c3cc4c(cc3[C@@H](NCCCN(C)C)[C@H]3COC(=O)C23)OCO4)cc(OC)c1O (stereo partly specified)	0.21	–	1.07 µM and 1.44 µM	2.03 µM and 4.03 µM	–	6.14	0.502 µM and 1.14 µM	–	7.25 µM and 10.3 µM	2.59 µM and 5.52 µM	0.927 µM and 2.11 µM	–	–	117 nM and 333 nM	1030 nM and 2100 nM
O=C(/C=C(\O)c1ccc(Cl)cc1)C(=O)NN=C(c1ccccc1)c1ccccc1	95.1	> 100	> 100 µM	> 100 µM	50.3	> 100	> 100 µM	> 100	> 100 µM	> 100 µM	–	> 100	> 100	–	–
N/C(COc1ccc(Cl)cc1)=N\NC(=O)c1ccncc1	> 100	> 100	> 100 µM	> 100 µM	> 100	> 100	> 100 µM	> 100	> 100 µM	> 100 µM	> 100 µM	> 100	–	–	–
[O-]c1c[n+](CC[n+]2cc([O-])on2)no1	> 100	> 100	> 100 µM	> 100 µM	> 100	> 100	> 100 µM	> 100	> 100 µM	> 100 µM	> 100 µM	> 100	–	–	–
COc1ccc2nc3ccc(OC)cc3c(SCC3CO3)c2c1 (stereo unspecified)	–	–	30.5 µM	–	38.5	22.7	27.4 µM	30.6	29.8 µM	69.3 µM	33.4 µM	30.4	> 100	–	–
Cc1cc(C)c(NS(=O)c2cccc(Cl)c2)c(C)c1 (stereo unspecified)	> 100	> 100	> 100 µM	–	> 100	> 100	> 100 µM	> 100	> 100 µM	> 100 µM	–	> 100	> 100	–	–
O=C(CC(C(=O)c1cccs1)c1ccsc1)c1ccco1 (stereo unspecified)	> 100	> 100	–	> 100 µM	43.6	56.5	> 100 µM	> 100	> 100 µM	> 100 µM	> 100 µM	–	> 100	–	–
ClCc1ccc2ccc3ccc(CCl)nc3c2n1	4.02	–	3.69 µM	3.48 µM	3.66	3.44	–	–	3.38 µM	7.82 µM	2.9 µM	–	9.91	–	–
CN(C)CCCNc1ccc2nnn3c4ccc(OC(=O)c5ccc([N+](=O)[O-])cc5)cc4c(=O)c1c23	33.2	18.3	27.2 µM	> 100 µM	37.5	32.7	19.6 µM	26	31 µM	28 µM	> 100 µM	35.8	–	–	–
COc1cc(C2c3cc4c(cc3OC(NCc3ccccc3)C2C)OCO4)cc(OC)c1OC (stereo unspecified)	31.8	> 100	0.671 µM	> 36.5 µM	0.723	–	> 52.1 µM	–	> 100 µM	> 100 µM	17.2 µM	16.4	7.33	–	–
CC1CC(C)(O)CC(C(O)CC2CC(=O)NC(=O)C2)C1=O (stereo unspecified)	0.229	1.85	6.44 µM	1.55 µM	5.87	0.704	0.64 µM	1.16	> 100 µM	9.21 µM	0.785 µM	–	0.764	–	–
CO/N=C(/C(=O)OC)c1ccccc1COc1cccc(C(F)(F)F)c1	34.4	> 100	46.1 µM	> 100 µM	> 100	> 100	> 100 µM	> 100	52.6 µM	> 100 µM	> 100 µM	–	> 100	–	–
[C-]#[N+]C1(C(=O)OCC)CC1	> 100	> 100	> 100 µM	> 100 µM	> 100	> 100	> 100 µM	> 100	> 100 µM	> 100 µM	> 100 µM	–	> 100	–	–
